Measurements reported in patent publication US10202604B2, “Methods of using microRNA-141” (Stemirna Therapeutics Co., Ltd., priority 2016, dated 2019).

Tested on: EZH2
Assay: EZH2 mRNA and protein levels
Assay type: cell-based, human
Method: FIG. 6A: Putative binding site of miR-141 in EZH2 3′-UTR. […] FIG. 6C is a qPCR analysis of EZH2 mRNA levels in CD44^+ PCa cells. Bars, mean±SD. *P<0.05; **P<0.01. […] Bars, mean±SD. **P<0.01. […] Western blotting was performed in PC3 and Du145 cells transfected with NC (60 nM) or miR-141 (30 or 60 nM) oligos (72 h). Relative protein levels were measured by densitometry and normalized to GAPDH levels (indicated below). […] Du145 cells plated one day before were treated with 1, 2, and 5 μM of DZNep for 96 h and then cells were harvested for invasion assays. **P<0.01. Inset, WB showing reduced EZH2 proteins by DZNep. […] Du145 cells were transfected with 10 nM scramble siRNA (siCon) or EZH2-targeting siRNAs (siEZH2) or siEZH2 plus anti-miR-141 (30 nM). 48 h later, cells were harvested for invasion assays. Bars, mean±SD. **P<0.01. […] Du145 cells were co-transfected with 30 nM NC or miR-141 oligos together with empty vector or pCMV-EZH2 construct. After 48 h, cells were harvested for invasion assay. Bars, mean±SD. **P<0.01.
Total RNA was extracted using microRNA isolation kit (Life Technologies) according to the manufacturer's instructions. microRNA qPCRs were performed using TaqMan microRNA assays (Life Technologies). qPCR data for microRNAs were normalized to RNU48 whereas qPCR data for mRNAs were normalized to GAPDH.
For Boyden Chamber invasion assays, Biocoat Matrigel Invasion Chamber (BD, Franklin Lakes, N.J.) was employed following the manufacturer's instructions. Briefly, 100,000-200,000 of prostate cancer cells after transfection with […]/miR-141 oligos or infection with miR-141 over-expressing lentivirus were seeded into each well. Medium with 20% fetal bovine serum was used in the lower chamber as chemo-attractant. After 20 h, cells were fixed and stained using HEMA stain. Representative images were taken for each membrane and cells were counted. Migration assays were simultaneously performed in control wells using identical protocol with Transwell (Costar; 8 μl PET) without Matrigel. […]

miR-141: miR-141 mirVana mimics (Life Technologies); microRNA-141 oligonucleotide may have SEQ ID NO: 1; in some experiments over-expressed by lentiviral vectors (UAACACUGUCUGGUAAAGAUGG; listed as RNA, further chemistry not given here) [miR-141 mirVana mimics (Life Technologies); in some experiments over-expressed by lentiviral vectors]
EZH2 RNA level (miR-141 overexpression in prostate cancer cells): significantly reduced
EZH2 protein level (miR-141 overexpression, PC3 and Du145, 30 or 60 nM, 72 h): significantly reduced
